Reference: PMC12133982, “Predominant T-cell epitopes of SARS-CoV-2 restricted by multiple prevalent HLA-B and HLA-C allotypes in Northeast Asia” (Frontiers in Immunology, 2025)
pIC50: −log10 of the molar value. Peptide text beside a SMILES is read from it.

Experiments:
[1] = target: HLA-B4001 (Homo sapiens, UniProt P01889, A65T/A93T/A95T/D138N/D98Y/E176V/E69K/N87E/Q56L/Q94N/R180L/S121R/S35A/S48T/T167S/V36M/W171L/Y33H/Y91S); assay: Competitive peptide binding assay, CIR-B4001; conditions: HMy2.CIR-B4001 cells, reference Cy5-[…], class from inhibition at 5 and 15 μM, flow cytometry MFI; read-out: Binding affinity with HLA-B4001
Description: (§1) Then, competitive peptide binding assays were performed.

[2] = target: HLA-B5801 (Homo sapiens, UniProt P01889, A329T/C349S/D201E/D98Y/E176V/E187L/E204Q/E69T/G107R/I218V/I90N/K202T/L105A/L119I/N104I/N87E/Q89R/Q94S/R106L/R155S/R180L/R86G/S101N/S121R/S35A/S48A/T118I/V127L/V306I/V36M/Y140S/Y91M); assay: Competitive peptide binding assay, CIR-B5801; conditions: HMy2.CIR-B5801 cells, reference Cy5-[…], class from inhibition at 5 and 15 μM, flow cytometry MFI; read-out: Binding affinity with HLA-B5801
Description: as §1

[3] = target: HLA-B5101 (Homo sapiens, UniProt P01889, A329T/A93T/A95T/C349S/D138N/D201E/D98Y/E187L/E204Q/E69T/G107R/I218V/K202T/L105A/L119W/N104I/Q94N/R106L/R155S/R180L/S101N/S121T/S35A/S48A/V306I/V36M/Y195H/Y91F); assay: Competitive peptide binding assay, CIR-B5101; conditions: HMy2.CIR-B5101 cells, reference Cy5-[…], class from inhibition at 5 and 15 μM, flow cytometry MFI; read-out: Binding affinity with HLA-B5101
Description: as §1

[4] = target: HLA-B1302 (Homo sapiens, UniProt P01889, A65T/A93T/A95T/D138N/D201E/D98Y/E176V/E204Q/E69M/E70A/G107R/K202T/L105A/L119W/N104T/N87E/Q94N/R106L/R155S/R169L/R180L/S101N/S121T/S35A/S48T/V127L/V36M/Y140L/Y91S); assay: Competitive peptide binding assay, CIR-B1302; conditions: HMy2.CIR-B1302 cells, reference Cy5-MMWYWGPSL, class from inhibition at 5 and 15 μM, flow cytometry MFI; read-out: Binding affinity with HLA-B1302
Description: as §1

[5] = target: HLA-B1501 (Homo sapiens, UniProt P01889, A329T/A93T/A95T/C349S/D201E/D98Y/E187L/E204Q/E69M/E70A/K202T/N87E/Q94N/R155S/R180W/S121R/S35A/S48A/V306I/V36M/Y140S/Y91S); assay: Competitive peptide binding assay, CIR-B1501; conditions: HMy2.CIR-B1501 cells, reference Cy5-[…], class from inhibition at 5 and 15 μM, flow cytometry MFI; read-out: Binding affinity with HLA-B1501
Description: as §1

[6] = target: HLA-B3501 (Homo sapiens, UniProt P01889, A329T/A93T/A95T/C349S/D201E/D98Y/E176V/E187L/E204Q/E69T/I218V/K202T/L119I/Q94N/R155S/R180L/S121R/S35A/S48A/T118I/V127L/V306I/V36M/Y140S/Y91F); assay: Competitive peptide binding assay, CIR-B3501; conditions: HMy2.CIR-B3501 cells, reference Cy5-[…], class from inhibition at 5 and 15 μM, flow cytometry MFI; read-out: Binding affinity with HLA-B3501
Description: as §1

[7] = target: HLA-B1502 (Homo sapiens, UniProt P01889, A329T/A93T/A95T/C349S/D201E/D98Y/E187L/E204Q/E69M/E70A/H137Y/K202T/L119I/Q94N/R155S/R180L/S121R/S35A/S48A/T118I/V306I/V36M/Y140S/Y91S); assay: Competitive peptide binding assay, CIR-B1502; conditions: HMy2.CIR-B1502 cells, reference Cy5-[…], class from inhibition at 5 and 15 μM, flow cytometry MFI; read-out: Binding affinity with HLA-B1502
Description: as §1

[8] = target: HLA-B4801 (Homo sapiens, UniProt P01889, A269T/A93T/A95T/D138N/D98Y/E176V/N87E/Q94N/R180L/T167S/W171L/Y91S); assay: Competitive peptide binding assay, CIR-B4801; conditions: HMy2.CIR-B4801 cells, reference Cy5-[…], class from inhibition at 5 and 15 μM, flow cytometry MFI; read-out: Binding affinity with HLA-B4801
Description: as §1

[9] = target: HLA-B4601 (Homo sapiens, UniProt P01889, A329T/A93R/C349S/D201E/E100V/E187L/E204Q/E69M/E70A/I90K/K202T/N87E/R155S/R180W/S121R/S35A/S48A/V306I/V36M/Y140S); assay: Competitive peptide binding assay, CIR-B4601; conditions: for pIC50: HMy2.CIR-B4601 cells, reference Cy5-[…], class from inhibition at 5 and 15 μM, flow cytometry MFI, read-out: Binding affinity with HLA-B4601; for inhibition at 5 µM: read-out: Inhibition % of Cy5-reference peptide binding, CIR-B4601, 5μM peptide; for inhibition at 15 µM: read-out: Inhibition % of Cy5-reference peptide binding, CIR-B4601, 15μM peptide
Description: as §1

[10] = target: HLA-B1301 (Homo sapiens, UniProt P01889, A65T/A93T/A95T/D138N/D201E/D98Y/E176V/E204Q/E69M/E70A/G107R/K202T/L105A/L119I/N104T/N87E/Q94N/R106L/R155S/R169L/R180L/S101N/S121R/S35A/S48T/T118I/V127L/V36M/Y140L/Y91S); assay: Competitive peptide binding assay, CIR-B1301; conditions: HMy2.CIR-B1301 cells, reference Cy5-[…], class from inhibition at 5 and 15 μM, flow cytometry MFI; read-out: Binding affinity with HLA-B1301
Description: as §1

[11] = target: HLA-B4403 (Homo sapiens, UniProt P01889, A223V/A65T/A93T/A95T/D201E/D98Y/E176V/E187L/E204Q/E69K/G107R/H137Y/K202T/L105A/L119I/N104T/N87E/Q56L/Q94N/R106L/R155S/R180L/S101N/S121R/S35A/S48T/T118I/V36M/W191S/Y140D/Y91S); assay: Competitive peptide binding assay, CIR-B4403; conditions: HMy2.CIR-B4403 cells, reference Cy5-CYMEAVAL, class from inhibition at 5 and 15 μM, flow cytometry MFI; read-out: Binding affinity with HLA-B4403
Description: as §1

[12] = target: T1, HLA-B0702 (Homo sapiens, UniProt P01889); assay: Competitive peptide binding assay, CIR-B0702; conditions: HMy2.CIR-B0702 cells, reference Cy5-[…], class from inhibition at 5 and 15 μM, flow cytometry MFI
T1 construct: expressed in transfected cells; host or cells: HMy2.CIR
Description: as §1

| SMILES | pIC50 [1] | pIC50 [2] | pIC50 [3] | pIC50 [4] | pIC50 [5] | pIC50 [6] | pIC50 [7] | pIC50 [8] | pIC50 [9] | pIC50 [10] | pIC50 [11] | pIC50 [12] | inhibition at 5 µM [9] | inhibition at 15 µM [9] |
| --- | --- | --- | --- | --- | --- | --- | --- | --- | --- | --- | --- | --- | --- | --- |
| CC(C)C[C@H](NC(=O)[C@H](Cc1c[nH]cn1)NC(=O)[C@H](Cc1ccccc1)NC(=O)[C@@H](NC(=O)[C@H](CC(=O)O)NC(=O)[C@H](C)NC(=O)[C@H](Cc1ccc(O)cc1)NC(=O)[C@H](CCC(=O)O)NC(=O)[C@@H](N)CCC(N)=O)C(C)C)C(=O)O [Epitope Y71] (H-QEYADVFHL-OH; N-terminus and C-terminus assumed) | 4.82 to 5.30 | < 4.82 | < 4.82 | < 4.82 | 4.82 to 5.30 | 4.82 to 5.30 | – | – | – | – | – | – | – | – |
| CC(C)C[C@H](N)C(=O)N[C@H](C(=O)N[C@@H](CCCCN)C(=O)N1CCC[C@H]1C(=O)N[C@@H](CO)C(=O)N[C@@H](Cc1ccccc1)C(=O)N[C@@H](Cc1ccc(O)cc1)C(=O)N[C@H](C(=O)N[C@@H](Cc1ccc(O)cc1)C(=O)O)C(C)C)C(C)C [Epitope Y125] (H-LVKPSFYVY-OH; N-terminus and C-terminus assumed) | – | 4.82 to 5.30 | – | < 4.82 | > 5.30 | – | < 4.82 | < 4.82 | – | – | – | – | – | – |
| CC(C)C[C@H](NC(=O)[C@H](CCC(=O)O)NC(=O)[C@H](CCCCN)NC(=O)[C@H](Cc1ccccc1)NC(=O)[C@H](CO)NC(=O)[C@@H](N)CC(C)C)C(=O)N[C@@H](CC(C)C)C(=O)N[C@H](C(=O)N[C@@H](Cc1ccc(O)cc1)C(=O)O)C(C)C [Epitope Y142] (H-LSFKELLVY-OH; N-terminus and C-terminus assumed) | < 4.82 | > 5.30 | – | – | 4.82 to 5.30 | < 4.82 | < 4.82 | < 4.82 | – | – | – | – | – | – |
| CC[C@H](C)[C@H](NC(=O)[C@H](CC(N)=O)NC(=O)[C@H](CCCCN)NC(=O)[C@H](Cc1ccccc1)NC(=O)[C@@H](NC(=O)[C@@H](N)Cc1ccccc1)C(C)C)C(=O)N[C@@H](CC(=O)O)C(=O)NCC(=O)N[C@@H](Cc1ccc(O)cc1)C(=O)O [Epitope Y172] (H-FVFKNIDGY-OH; N-terminus and C-terminus assumed) | < 4.82 | > 5.30 | < 4.82 | < 4.82 | > 5.30 | 4.82 to 5.30 | 4.82 to 5.30 | – | < 4.82 | < 4.82 | < 4.82 | < 4.82 | – | – |
| CSCC[C@H](NC(=O)[C@H](C)NC(=O)[C@H](CCC(=O)O)NC(=O)[C@H](Cc1ccc(O)cc1)NC(=O)[C@H](Cc1ccccc1)NC(=O)[C@H](CCC(=O)O)NC(=O)[C@@H]1CCCN1C(=O)[C@H](CCC(=O)O)NC(=O)[C@@H](N)Cc1c[nH]c2ccccc12)C(=O)O [Epitope Y200] (H-WEPEFYEAM-OH; N-terminus and C-terminus assumed) | – | < 4.82 | – | < 4.82 | < 4.82 | < 4.82 | – | < 4.82 | – | < 4.82 | – | – | – | – |
| CSCC[C@H](NC(=O)[C@H](CCCCN)NC(=O)CN)C(=O)N[C@@H](CCCCN)C(=O)N[C@@H](CC(=O)O)C(=O)N[C@@H](CC(C)C)C(=O)N[C@@H](CO)C(=O)N1CCC[C@H]1C(=O)N[C@@H](CCCNC(=N)N)C(=O)N[C@@H](Cc1c[nH]c2ccccc12)C(=O)O [Epitope Y224] (H-GKMKDLSPRW-OH; N-terminus and C-terminus assumed) | – | – | – | – | < 4.82 | < 4.82 | – | 4.82 to 5.30 | < 4.82 | < 4.82 | – | – | 32.3% | 52.3% |
| CC[C@H](C)[C@H](NC(=O)[C@H](C)NC(=O)CNC(=O)[C@@H](NC(=O)[C@H](Cc1ccc(O)cc1)NC(=O)[C@@H](NC(=O)[C@@H](N)CC(C)C)[C@@H](C)O)[C@@H](C)O)C(=O)N[C@@H](CCCCN)C(=O)N[C@@H](CC(C)C)C(=O)O [Epitope Y243] (H-LTYTGAIKL-OH; N-terminus and C-terminus assumed) | – | – | – | – | < 4.82 | < 4.82 | < 4.82 | < 4.82 | > 5.30 | < 4.82 | – | – | 77.3% | 94% |
| CC[C@H](C)[C@H](NC(=O)[C@H](C)NC(=O)[C@H](C)NC(=O)[C@H](CC(N)=O)NC(=O)CNC(=O)[C@H](CC(=O)O)NC(=O)[C@H](CCC(N)=O)NC(=O)[C@H](C)NC(=O)[C@@H](N)Cc1ccccc1)C(=O)O [Epitope Y246] (H-FAQDGNAAI-OH; N-terminus and C-terminus assumed) | – | < 4.82 | – | < 4.82 | < 4.82 | < 4.82 | < 4.82 | < 4.82 | – | < 4.82 | – | – | – | – |
| CC[C@H](C)[C@H](NC(=O)[C@H](CC(=O)O)NC(=O)[C@H](CCCNC(=N)N)NC(=O)CNC(=O)[C@H](Cc1ccccc1)NC(=O)[C@H](CCC(N)=O)NC(=O)[C@H](CCC(N)=O)NC(=O)[C@H](Cc1ccccc1)NC(=O)[C@@H]1CCCN1C(=O)[C@@H](N)CC(C)C)C(=O)O [Epitope Y282] (H-LPFQQFGRDI-OH; N-terminus and C-terminus assumed) | – | – | – | – | 4.82 to 5.30 | – | < 4.82 | < 4.82 | – | < 4.82 | – | – | – | – |
| C[C@H](NC(=O)[C@H](CO)NC(=O)[C@@H](N)CCCCN)C(=O)NCC(=O)N[C@@H](Cc1ccccc1)C(=O)N1CCC[C@H]1C(=O)N[C@@H](Cc1ccccc1)C(=O)N[C@@H](CC(N)=O)C(=O)N[C@@H](CCCCN)C(=O)N[C@@H](Cc1c[nH]c2ccccc12)C(=O)O [Epitope Y306] (H-KSAGFPFNKW-OH; N-terminus and C-terminus assumed) | < 4.82 | – | – | > 5.30 | < 4.82 | – | – | < 4.82 | – | – | – | – | – | – |
